Laboratory results taken from PubChem BioAssay (NCI).
Values joined by “and” are separate entries in the source; they are usually repeats but may differ in a detail not shown here. Identical values can stand only once.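 96-well plates; 48 h exposure; 5 concentrations. Endpoints by linear interpolation between flanking doses. Not reached: highest tested concentration assigned. GI50: concentration for 50% inhibition of growth. The concentration for full growth arrest is given as TGI.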

How the values were obtained:
Assay in all cases: growth of human tumour cells (NCI), 48 h
A498 renal = system: A498 renal
COLO 205 colon = system: COLO 205 colon
HT29 colon = system: HT29 colon
K-562 leukemia = system: K-562 leukemia
OVCAR-4 ovarian = system: OVCAR-4 ovarian
SNB-19 CNS = system: SNB-19 CNS
TK-10 renal = system: TK-10 renal
SK-MEL-2 melanoma = system: SK-MEL-2 melanoma
HS 578T breast = system: HS 578T breast
NCI/ADR-RES ovarian = system: NCI/ADR-RES ovarian

SMILES	TGI (A498 renal)	TGI (COLO 205 colon)	TGI (HT29 colon)	TGI (K-562 leukemia)	TGI (OVCAR-4 ovarian)	TGI (SNB-19 CNS)	TGI (TK-10 renal)	TGI (SK-MEL-2 melanoma)	GI50 (A498 renal)	GI50 (COLO 205 colon)	GI50 (HS 578T breast)	TGI (HS 578T breast)	GI50 (HT29 colon)	GI50 (NCI/ADR-RES ovarian)	TGI (NCI/ADR-RES ovarian)	GI50 (SNB-19 CNS)	GI50 (TK-10 renal)	GI50 (K-562 leukemia)	GI50 (OVCAR-4 ovarian)	GI50 (SK-MEL-2 melanoma)
CS(=O)(=O)C1S(=O)(=O)OCCOS1(=O)=O	> 100 µM	> 100 µM	> 100 µM	> 100 µM	> 100 µM	> 100 µM	> 100 µM													
COC(=O)N1[C@H]2Cc3c(OC)c(C)c(OC)c(OC)c3[C@@H]1/C(=C\c1cc(OC)c(OC)c(C)c1OC)N(Cc1ccccc1)C2=O	> 100 µM	32 µM	> 100 µM	> 100 µM	> 100 µM	> 100 µM	> 100 µM	> 100 µM												
CS(=O)(=O)NNS(=O)(=O)c1ccc(Br)cc1	> 100 µM	> 100 µM	> 100 µM	> 100 µM	> 100 µM	> 100 µM	> 100 µM	> 100 µM												
COc1ccc(CC(=O)c2cc(OC)c(OC)cc2C)cc1OC	> 100 µM	> 100 µM	> 100 µM	> 100 µM	> 100 µM	> 100 µM	> 100 µM	> 100 µM												
Cc1ccc(S(=O)(=O)N(C)C)cc1[N+](=O)[O-]	> 100 µM	> 100 µM	> 100 µM			> 100 µM	> 100 µM		> 100 µM	> 100 µM	> 100 µM	> 100 µM	> 100 µM	> 100 µM	> 100 µM	> 100 µM	> 100 µM			
C=C1C(=O)O[C@@H]2C[C@]3(C)[C@@H](C[C@H]12)[C@](C)(O)CC[C@@H]3O		> 100 µM	> 100 µM	> 100 µM	> 100 µM	> 100 µM	76.6 µM	> 100 µM												
COc1ccc(-c2cc(C(=O)Nc3cccc(C(F)(F)F)c3)[nH]c(=S)n2)cc1	> 100 µM	> 100 µM	> 100 µM	> 100 µM	> 100 µM	> 100 µM	> 100 µM	> 100 µM												
O=C1CCC2(c3ccc(F)cc3)Nc3ccccc3N12 (centres undefined)	> 100 µM	> 100 µM	> 100 µM	> 100 µM	> 100 µM		> 100 µM	> 100 µM												
O=C(Cc1ccccc1)Oc1ccc2c(-c3ccccc3)c(C(=O)Nc3ccc(Cl)cc3)c(=O)oc2c1	> 100 µM	> 100 µM	> 100 µM	> 100 µM	> 100 µM	> 100 µM	> 100 µM													
O=CC1=CCCC2(C1)OCCO2	> 100 µM	> 100 µM	> 100 µM	> 100 µM	> 100 µM	> 100 µM	> 100 µM	> 100 µM												
COC(=O)/C(=C/c1ccc(OC)cc1)C(C(=O)O)=C(C)C	> 100 µM	> 100 µM	> 100 µM	> 100 µM		> 100 µM	> 100 µM	> 100 µM												
CN(C)CCNC(=O)c1ccc2ccc3cccnc3c2n1	> 57.4 µM	23.9 µM	> 100 µM	> 100 µM	> 69.2 µM	> 93 µM	62.8 µM	29.3 µM												
CCCCOC1CC2(c3ccc(OC)cc3)C(=O)c3ccccc3N2O1 (centres undefined)	> 10 µM	54.1 µM		> 100 µM		> 10 µM	> 100 µM	> 100 µM												
O=C(NC1CCCCC1)c1c(O)[nH]c(=S)[nH]c1=O	> 100 µM	> 100 µM	> 100 µM		> 100 µM	> 100 µM	> 100 µM	> 100 µM												
CC(C)(C)C1CC[C@H]2c3c([nH]c4ccc(Br)cc34)[C@H]3C(=O)N(c4ccccc4)C(=O)[C@H]3[C@H]2C1 (some centres undefined)		44.2 µM	> 100 µM	> 100 µM	33.3 µM	66.9 µM	> 100 µM	> 100 µM												
[Cu+2].[Cu+2].[O-]c1ccccc1C=Nc1ccccc1[O-].[O-]c1ccccc1C=Nc1ccccc1[O-]	28.1 µM	5.11 µM	27.4 µM	52.9 µM	8.23 µM	17.8 µM	32.3 µM	24.4 µM	14.4 µM	2.26 µM			6.05 µM			5.32 µM	18.3 µM	4.07 µM	2.6 µM	11.5 µM
COc1ccc(CNc2cc(OC)cc(OC)c2)cc1	> 100 µM	> 100 µM	> 100 µM	> 100 µM	> 100 µM	> 100 µM	> 100 µM	> 100 µM	> 100 µM and 14.7 µM				> 73.8 µM and 35 µM							
C=CCN1C(=O)CS/C1=N\NC(=O)c1c(C)nc2sccn12		> 100 µM	> 100 µM	> 100 µM		> 100 µM	> 100 µM	> 100 µM												
